Assay results reported in BindingDB's records for doi:10.7270/Q2TX3D82 (Future University, 2017).

Molecular target: T1, Dihydrofolate reductase (Bos taurus, UniProt P00376)
T1 sequence (P00376 whole entry): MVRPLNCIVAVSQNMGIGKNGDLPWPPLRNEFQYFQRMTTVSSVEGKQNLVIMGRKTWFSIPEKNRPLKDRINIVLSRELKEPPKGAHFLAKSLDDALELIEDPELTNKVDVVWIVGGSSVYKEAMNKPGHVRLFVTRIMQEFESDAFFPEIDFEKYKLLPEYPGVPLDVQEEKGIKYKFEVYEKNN
Experiment: Dihydrofolate Reductase (DHFR) Inhibition Assay
Settings: pH 7.4; 25 °C

SMILES | IC50
COc1ccc(-n2c(SCc3nnc(Nc4ccc(Cl)cc4)s3)nc3cc(OC)c(OC)cc3c2=O)cc1 [6,7-Dimethoxy-2-((5-(4-chlorophenylamino)-1,3,4-thiadiazol-2-yl)methylthio)-3-(4-methoxyphenyl)quinazolin-4(3H)-one (30)] | 14.7 µM
CCOC(=O)CSc1nc2ccc(Cl)cc2c(=O)n1-c1ccc(OC)cc1 [Ethyl 2-(6-chloro-3-(4-methoxyphenyl)-4-oxo-3,4-dihydroquinazolin-2-yl-thio)acetate (12)] | 1.7 µM
COc1ccc(-n2c(SCC(=O)NN)nc3ccc(Cl)cc3c2=O)cc1 [2-[6-Chloro-3-(4-methoxyphenyl)-4-oxo-3,4-dihydroquinazolin-2-yl-thio] acetohydrazide (14)] | 7.5 µM
COc1ccc(-n2c(=S)[nH]c3cc(OC)c(OC)cc3c2=O)cc1 [(6,7-Dimethoxy)-2-mercapto-3-(4-methoxyphenyl)quinazolin-4(3H)-ones (11)] | 29 µM
COc1ccc(Nc2nnc(CSc3nc4ccc(Cl)cc4c(=O)n3-c3ccc(OC)cc3)s2)cc1 [6-chloro-2-((5-(4-methoxyphenylamino)-1,3,4-thiadiazol-2-yl)methylthio)-3-(4-methoxyphenyl)quinazolin-4(3H)-one (29)] | 4.4 µM
COc1ccc(Nc2nnc(CSc3nc4cc(OC)c(OC)cc4c(=O)n3-c3ccc(OC)cc3)s2)cc1 [6,7-Dimethoxy-2-((5-(4-methoxyphenylamino)-1,3,4-thiadiazol-2-yl)methylthio)-3-(4-methoxyphenyl)quinazolin-4(3H)-one (31)] | 11.8 µM
CCOC(=O)CSc1nc2cc(OC)c(OC)cc2c(=O)n1-c1ccc(OC)cc1 [Ethyl 2-(6,7-dimethoxy-3-(4-methoxyphenyl)-4-oxo-3,4-dihydroquinazolin-2-yl-thio)acetate (13)] | 14.4 µM
COc1ccc(C(=S)NNC(=O)CSc2nc3cc(OC)c(OC)cc3c(=O)n2-c2ccc(OC)cc2)cc1 [1-[2-(6,7-Dimethoxy)-3-(4-methoxy-phenyl)-4-oxo-3,4-dihydroquinazolin-2-yl-thio)acetyl)-4-(4-methoxy)phenyl]thiosemicarbazide (23)] | 0.6 µM
COc1ccc(-n2c(S)nnc2CSc2nc3cc(OC)c(OC)cc3c(=O)n2-c2ccc(OC)cc2)cc1 [(6,7-Dimethoxy)-2-((4-(4-methoxyphenyl)-5-mercapto-4H-1,2,4-triazol-3-yl)methylthio)-3-(4-methoxyphenyl)quinazolin-4(3H)-one (27)] | 10.8 µM
COc1ccc(-n2c(SCC(=O)NNC(=S)c3ccc(Cl)cc3)nc3ccc(Cl)cc3c2=O)cc1 [1-[2-(6-Chloro)-3-(4-methoxy-phenyl)-4-oxo-3,4-dihydroquinazolin-2-yl-thio)acetyl)-4-(4-chloro)phenyl]thiosemicarbazide (20)] | 1.2 µM
COc1ccc(-n2c(=S)[nH]c3ccc(Cl)cc3c2=O)cc1 [6-Chloro-2-mercapto-3-(4-methoxyphenyl)quinazolin-4(3H)-ones (10)] | 11.5 µM
COc1ccc(-n2c(SCc3nnc(Nc4ccc(Cl)cc4)s3)nc3ccc(Cl)cc3c2=O)cc1 [6-Chloro-2-((5-(4-chlorophenylamino)-1,3,4-thiadiazol-2-yl)methylthio)-3-(4-methoxyphenyl)quinazolin-4(3H)-one (28)] | 0.4 µM

The next lines start with the values.

IC50 | SMILES
7.6 µM | COc1ccc(-n2c(SCC(=O)N/N=C/c3ccc(Cl)cc3)nc3cc(OC)c(OC)cc3c2=O)cc1 [N'-[4-Chlorobenzylidene-2-(6,7-dimethoxy)-3-(4-methoxy-phenyl)-4-oxo-3,4-dihydroquinazolin-2-yl-thio]acetohydrazide (18)]
11 µM | COc1ccc(-n2c(SCc3nnc(S)n3-c3ccc(Cl)cc3)nc3cc(OC)c(OC)cc3c2=O)cc1 [(6,7-Dimethoxy)-2-((4-(4-chlorophenyl)-5-mercapto-4H-1,2,4-triazol-3-yl)methylthio)-3-(4-methoxyphenyl)quinazolin-4(3H)-one (26)]
0.8 µM | COc1ccc(-n2c(SCC(=O)NN)nc3cc(OC)c(OC)cc3c2=O)cc1 [2-[(6,7-Dimethoxy)-3-(4-methoxyphenyl)-4-oxo-3,4-dihydroquinazolin-2-yl-thio] acetohydrazide (15)]
19 µM | COc1ccc(-n2c(SCC(=O)N/N=C/c3ccc(Cl)cc3)nc3ccc(Cl)cc3c2=O)cc1 [N'-[4-Chlorobenzylidene-2-(6-chloro)-3-(4-methoxy-phenyl)-4-oxo-3,4-dihydroquinazolin-2-yl-thio]acetohydrazide (16)]
0.01 µM | COc1ccc(/C=N/NC(=O)CSc2nc3ccc(Cl)cc3c(=O)n2-c2ccc(OC)cc2)cc1 [N'-[4-Methoxybenzylidene-2-(6-chloro)-3-(4-methoxy-phenyl)-4-oxo-3,4-dihydroquinazolin-2-yl-thio]acetohydrazide (17)]
8 µM | COc1ccc(/C=N/NC(=O)CSc2nc3cc(OC)c(OC)cc3c(=O)n2-c2ccc(OC)cc2)cc1 [N'-[4-Methoxybenzylidene-2-(6,7-dimethoxy)-3-(4-methoxy-phenyl)-4-oxo-3,4-dihydroquinazolin-2-yl-thio]acetohydrazide (19)]
